Measurements as given in ChEMBL document CHEMBL2380275, “Synthesis of new heterocyclic hybrids based on pyrazole and thiazolidinone scaffolds as potent inhibitors of tyrosinase” (Bioorg Med Chem, 2013).
The source made the active and inactive calls. No cut-off for these calls is given here.

What was measured:
Tyrosinase [1] = biological target: T1, Tyrosinase (Agaricus bisporus, UniProt O42713); test: Inhibition of mushroom tyrosinase using L-DOPA as substrate preincubated for 10 mins by spectrophotometric analysis
T1 sequence (O42713 whole entry): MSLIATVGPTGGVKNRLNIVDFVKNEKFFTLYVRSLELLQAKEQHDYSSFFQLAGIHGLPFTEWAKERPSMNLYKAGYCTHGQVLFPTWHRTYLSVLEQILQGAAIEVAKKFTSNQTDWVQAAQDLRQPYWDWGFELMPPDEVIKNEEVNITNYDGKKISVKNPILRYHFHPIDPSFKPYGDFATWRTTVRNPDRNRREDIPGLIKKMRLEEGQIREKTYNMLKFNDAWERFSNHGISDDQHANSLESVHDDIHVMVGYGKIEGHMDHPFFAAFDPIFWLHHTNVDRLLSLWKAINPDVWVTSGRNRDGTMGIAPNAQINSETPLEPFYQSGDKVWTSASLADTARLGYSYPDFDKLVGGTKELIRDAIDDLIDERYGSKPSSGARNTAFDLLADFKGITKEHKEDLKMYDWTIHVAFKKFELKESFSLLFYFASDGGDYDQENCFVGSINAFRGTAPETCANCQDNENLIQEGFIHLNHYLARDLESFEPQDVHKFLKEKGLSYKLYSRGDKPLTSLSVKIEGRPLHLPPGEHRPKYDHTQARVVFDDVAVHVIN

[2] = biological target: T2, Tyrosinase (Agaricus bisporus) (UniProt O42713); test: Inhibition of mushroom tyrosinase using L-DOPA as substrate at 200 uM preincubated for 10 mins by spectrophotometric analysis relative to control
T2 sequence (whole entry): T1 sequence (O42713 whole entry)

Tyrosinase [3] = biological target: T1, Tyrosinase
Description: Competitive inhibition of mushroom tyrosinase diphenolase activity assessed as L-DOPA conversion to dopachrome by Lineweaver-Burk plot analysis

[4] = biological target: T2, Tyrosinase (Agaricus bisporus); test: Reversible inhibition of mushroom tyrosinase diphenolase activity assessed as L-DOPA conversion to dopachrome by Lineweaver-Burk plot analysis

Structure (SMILES) | IC50 (Tyrosinase [1]) [µM] | inhibition [2] [%] | Ki (Tyrosinase [3]) [µM] | inhibition [4]
COc1ccc(NC2=NC(=O)/C(=C/c3cn(-c4ccccc4)nc3-c3ccc(Cl)cc3)S2)c(OC)c1 | 74 | 38 | 5.7 | –
COc1ccc(NC2=NC(=O)/C(=C/c3cn(-c4ccccc4)nc3-c3ccc(Br)cc3)S2)c(OC)c1 | 131 | 87.9 | 9.46 | –
COc1ccc(NC2=NC(=O)/C(=C/c3cn(-c4ccccc4)nc3-c3ccccc3Cl)S2)c(OC)c1 | 34.1 | 126 | 29.1 | Active
COc1ccc(NC2=NC(=O)/C(=C/c3cn(-c4ccccc4)nc3-c3ccc(F)cc3)S2)c(OC)c1 | 104 | 54.2 | 7.18 | –

Results, then the molecule that gave them:

IC50 (Tyrosinase [1]) [µM] | inhibition [2] [%] | Ki (Tyrosinase [3]) [µM] | inhibition [4] | Structure (SMILES)
114 | 46.8 | – | – | COc1ccc(-c2nn(-c3ccccc3)cc2/C=C2\SC(Nc3ccc(OC)cc3OC)=NC2=O)cc1
194 | 13.5 | – | – | COc1ccc(NC2=NC(=O)/C(=C/c3cn(-c4ccccc4)nc3-c3ccc(C)cc3)S2)c(OC)c1
81.7 | 52 | 16.9 | – | COc1ccc(NC2=NC(=O)/C(=C/c3cn(-c4ccccc4)nc3-c3ccc(Cl)cc3Cl)S2)c(OC)c1
– | 8.03 | – | – | COc1ccc(NC2=NC(=O)/C(=C/c3cn(-c4ccccc4)nc3-c3ccccc3)S2)c(OC)c1
52.6 | 110 | 21.5 | Active | COc1ccc(NC2=NC(=O)/C(=C/c3cn(-c4ccccc4)nc3-c3cccc(Cl)c3)S2)c(OC)c1
